The values that follow come from patent publication US20070274923A1, “Non-invasive real-time in vivo bioluminescence imaging of local Ca2+ dynamics in living organisms” (priority 2005, published 2007).

SMILES strings stand for the structures.

In one test the test system is cortical neurons. The test can be described thus: Single-cell bioluminescence imaging of transfected cortical neurons. Type of test: cell-based. The following applies: cortical neurons with non-targeted GA reconstituted with h coelenterazine. The method, then: Cultures were plated on to glass-bottomed dishes and mounted to a stage adapter on a fully automated inverted microscope mounted in a black-box. GFP-Aequorin was reconstituted with 2.5-5 μM coelenterazine for 30 minutes at 37° C. Incubation of cells with coelenterazine that had been transfected with SynGA was undertaken at room temperature to reduce the consumption of the photoprotein during the reconstitution process. Cells were perfused with tyrodes buffer. Prior to bath application of NMDA, cells were perfused for 1 minute without Mg^2+. All recordings were made at room temperature (22-25° C.). […]
The fluorescence/bioluminescence wide field microscopy system was custom built by ScienceWares, Inc. The system includes a fully automated inverted microscope (200M, Zeiss Germany) and is housed in a light-tight dark box. […] Low level light emission (photon rate<100 kHz), was collected using an Image Photon Detector (IPD 3, Photek Ltd.) connected to the baseport of the microscope, which assigns an X, Y coordinate and time point for each detected photon (Miller et al., 1994). The system is fully controlled by the data acquisition software, which also converts single photon events into an image that can be superimposed with brightfield or fluorescence images made by a connected CCD camera to the C-port (Coolsnap HQ, Roper Scientific). […]

Test [1] deals with Ca^2+ oscillations in somatosensory cortex slices. The test can be described thus: Mitochondrial Ca2+ oscillations in organotypic somatosensory cortex slices of mtGA transgenic mice (bioluminescence imaging). It is filed as cell-based, mouse. The following applies: 50 μM; oscillations generated by removal of Mg2+ from buffer; slices of P4 mtGA mice.

On to `[Cl-].[K+]` [KCl], for which, in the test with cortical neurons (90 mM), the “Ca2+-induced bioluminescence signal” value is “robust signal”.

As for `N[C@H](CCCP(=O)(O)O)C(=O)O` [D-APV], in test [1], the “effect on Ca2+ oscillations detected within the mitochondrial matrix” value is “completely and reversibly blocked”.

In the case of `CN[C@H](CC(=O)O)C(=O)O` [NMDA], the “Ca2+-induced bioluminescence signal” value in the test on cortical neurons (100 μM) was “robust signal”.
